According to patent US9328083B2, “2-aminated methylene or 2-esterified methylene tanshinone derivatives, and preparation method and application thereof” (HANGZHOU BENSHENG PHARMACEUTICAL CO., LTD., priority 2011, dated 2016):
Converted amounts (≈) assume the structure as drawn.

What was measured:
[1] = system: H9 (acute lymphoblastic leukemia, ALL); assay: MTT growth inhibition of leukemia cells, 72 h; assay type: cell-based, human; conditions: for IC50 / IC90: Homo sapiens, H9, 72 h; for IC50: read-out: IC50; for IC90: read-out: IC90
Excerpt: (§1) Leukemia cell lines: leukemia cell lines: K562/adr (drug-resistant, chronic myeloid leukemia, CML), NB4 (acute promyelocytic leukemia, AML), Kasumi-1 (acute myeloid leukemia M2 type, AML-M2), and Jurkat (acute lymphoblastic leukemia, ALL), all of which are donated by Cancer Research Institute of Zhejiang University, China; and H9 (acute lymphoblastic leukemia, ALL), which is purchased from China Center for Type Culture Collection (CCTCC).
(§2) The standard sample of tanshinone I (TA) and the 2-aminated methylene or 2-esterified methylene tanshinone I derivatives of the present invention are sufficiently dissolved with dimethylsulfoxide to produce a stock solution of 10 mg/mL, which is refrigerated at 4° C. and stored in dark, and is diluted with a cell culture medium to the desired concentration prior to experimentation.
(§3) Obtaining 6000 well-growing leukemia cells and inoculating them into wells of a 96-well cell culture plate. The culture medium is the RPMI-1640 cell culture medium containing 10% fetal bovine serum. After adding on the second day the 2-aminated methylene or 2-esterified methylene tanshinone I derivatives of different concentrations and mixing uniformly, placing the plate in a carbon dioxide cell incubator (5% CO2) at 37° C. and incubated for 72 hours. Then the viable cell concentration is determined by MTT method.

[2] = system: Jurkat (acute lymphoblastic leukemia, ALL); assay: MTT growth inhibition of leukemia cells, 72 h; assay type: cell-based, human; conditions: Homo sapiens, 72 h; for IC50: read-out: IC50; for IC90: read-out: IC90
Excerpt: as §1, §2, §3

[3] = system: K562/adr (drug-resistant, chronic myeloid leukemia, CML); assay: MTT growth inhibition of leukemia cells, 72 h; assay type: cell-based, human; conditions: Homo sapiens, K562/Adr; for IC50: read-out: IC50; for IC90: read-out: IC90
Excerpt: as §1, §2, §3

[4] = system: Kasumi-1 (acute myeloid leukemia M2 type, AML-M2); assay: MTT growth inhibition of leukemia cells, 72 h; assay type: cell-based, human; conditions: Homo sapiens, Kasumi-1, 72 h; for IC50: read-out: IC50; for IC90: read-out: IC90
Excerpt: as §1, §2, §3

[5] = system: NB4 (acute promyelocytic leukemia, AML); assay: MTT growth inhibition of leukemia cells, 72 h; assay type: cell-based, human; conditions: Homo sapiens, NB4, 72 h; for IC50: read-out: IC50; for IC90: read-out: IC90
Excerpt: as §1, §2, §3

[6] = system: RPMI8226 (multiple myeloma); assay: MTT growth inhibition of multiple myeloma cells, 72 h; assay type: cell-based, human; conditions: Homo sapiens, RPMI 8226, 72 h; for IC50: read-out: IC50; for IC90: read-out: IC90
Method: Myeloma cell lines: RPMI8226 (multiple myeloma), purchased from Fuxiang Bio-tech Co. Ltd., Shanghai, China.
as §2
as §3, with “myeloma” for “leukemia”, “cells as above” for “cells”, “1640” for “RPMI-1640”, “adding” for “adding on the second day”

[7] = system: A549 (human lung cancer); assay: MTT growth inhibition of human solid tumor cells, 72 h; assay type: cell-based; conditions: Homo sapiens, A549, 72 h; for IC50: read-out: IC50; for IC90: read-out: IC90
Method: (§4) Hep-2 (laryngeal carcinoma), A549 (human lung cancer), CaES-17 (esophageal cancer cell), PC-3 (prostate cancer), CNE (nasopharyngeal carcinoma cell), and SK-OV-3 (ovarian cancer cell), all of which are purchased from China Center For Type Culture Collection; RKO (human colon adenocarcinoma cell), MGC 803 (human gastric cancer cell), MG63 (osteosarcoma) and U87 MG (malignant glioma cell), all of which are purchased from Fuxiang Bio-tech Co. Ltd., Shanghai, China; PANC-1 (pancreatic cancer), Hep G2 (human liver cancer cell), Becap37 (human breast cancer cell) and Hela (human cervical cancer cell), all of which are donated by Cancer Research Institute of Zhejiang University, China.
as §2
(§5) Obtaining 4000 well-growing human solid tumor cells and inoculating them into wells of a 96-well cell culture plate. The culture medium is DMEM High Glucose cell culture medium containing 10% fetal bovine serum. The plate is placed in a carbon dioxide cell incubator (5% CO2) at 37° C. and incubated for 24 hours. After adding the 2-aminated methylene or 2-esterified methylene tanshinone I derivatives of different concentrations and mixing uniformly, the plate is placed in a carbon dioxide cell incubator (5% CO2) at 37° C. and incubated for 72 hours. Then the viable cell concentration is determined by the MTT method.

[8] = system: Becap37 (human breast cancer cell); assay: as above; assay type: cell-based; conditions: Homo sapiens, Becap-37, 72 h; for IC50: read-out: IC50; for IC90: read-out: IC90
Method: as §4, §2, §5

[9] = system: CNE (nasopharyngeal carcinoma cell); assay: as above; assay type: cell-based; conditions: Homo sapiens; for IC50: read-out: IC50; for IC90: read-out: IC90
Method: as §4, §2, §5

[10] = system: CaES-17 (esophageal cancer cell); assay: as above; assay type: cell-based; conditions: Homo sapiens, CaEs17, CaEs-17, 72 h; for IC50: read-out: IC50; for IC90: read-out: IC90
Method: as §4, §2, §5

[11] = system: Hela (human cervical cancer cell); assay: as above; assay type: cell-based; conditions: for IC50 / IC90: Homo sapiens, HeLa, 72 h; for IC50: read-out: IC50; for IC90: read-out: IC90
Method: as §4, §2, §5

[12] = system: Hep G2 (human liver cancer cell); assay: as above; assay type: cell-based; conditions: Homo sapiens, HepG2, Hep G2, 72 h; for IC50: read-out: IC50; for IC90: read-out: IC90
Method: as §4, §2, §5

[13] = system: Hep-2 (laryngeal carcinoma); assay: as above; assay type: cell-based; conditions: for IC50 / IC90: Homo sapiens, HEp-2, 72 h; for IC50: read-out: IC50; for IC90: read-out: IC90
Method: as §4, §2, §5

[14] = system: MG63 (osteosarcoma); assay: as above; assay type: cell-based; conditions: Homo sapiens, MG-63, 72 h; for IC50: read-out: IC50; for IC90: read-out: IC90
Method: as §4, §2, §5

[15] = system: MGC 803 (human gastric cancer cell); assay: as above; assay type: cell-based; conditions: Homo sapiens, MGC-803, 72 h; for IC50: read-out: IC50; for IC90: read-out: IC90
Method: as §4, §2, §5

[16] = system: PANC-1 (pancreatic cancer); assay: as above; assay type: cell-based; conditions: Homo sapiens, PANC-1, 72 h; for IC50: read-out: IC50; for IC90: read-out: IC90
Method: as §4, §2, §5

[17] = system: PC-3 (prostate cancer); assay: as above; assay type: cell-based; conditions: Homo sapiens, PC-3, 72 h; for IC50: read-out: IC50; for IC90: read-out: IC90
Method: as §4, §2, §5

[18] = system: RKO (human colon adenocarcinoma cell); assay: as above; assay type: cell-based; conditions: Homo sapiens; for IC50: read-out: IC50; for IC90: read-out: IC90
Method: as §4, §2, §5

[19] = system: SK-OV-3 (ovarian cancer cell); assay: as above; assay type: cell-based; conditions: Homo sapiens, SK-OV-3, 72 h; for IC50: read-out: IC50; for IC90: read-out: IC90
Method: as §4, §2, §5

[20] = system: U87 MG (malignant glioma cell); assay: as above; assay type: cell-based; conditions: Homo sapiens, U-87 MG, U87-MG, 72 h; for IC50: read-out: IC50; for IC90: read-out: IC90
Method: as §4, §2, §5

Cc1c(CN(C)CCOC(=O)[C@@H](N)C(C)C)oc2c1C(=O)C(=O)c1c-2ccc2c(C)cccc12 [BS-TA-71]
improvement of anti-H9 activity as compared with tanshinone I ([1]; H9, vs tanshinone I): 28 fold | IC50 [1]: 0.125 µg/mL (≈ 0.27 µM) | IC90 [1]: 0.49 µg/mL (≈ 1.06 µM) | IC50 [2]: 0.37 µg/mL (≈ 0.8 µM) | IC90 [2]: 0.94 µg/mL (≈ 2.03 µM) | IC50 [3]: 0.47 µg/mL (≈ 1.02 µM) | IC90 [3]: 0.76 µg/mL (≈ 1.64 µM) | IC50 [4]: 0.13 µg/mL (≈ 0.281 µM) | IC90 [4]: 0.39 µg/mL (≈ 0.843 µM) | IC50 [5]: 0.15 µg/mL (≈ 0.324 µM) | IC90 [5]: 0.41 µg/mL (≈ 0.886 µM) | IC50 [6]: 0.25 µg/mL (≈ 0.54 µM) | IC90 [6]: 0.83 µg/mL (≈ 1.79 µM) | IC50 [7]: 0.8 µg/mL (≈ 1.73 µM) | IC90 [7]: 2.82 µg/mL (≈ 6.1 µM) | IC50 [8]: 0.4 µg/mL (≈ 0.865 µM) | IC90 [8]: 0.9 µg/mL (≈ 1.95 µM) | IC50 [9]: 0.63 µg/mL (≈ 1.36 µM) | IC90 [9]: 1.43 µg/mL (≈ 3.09 µM) | IC50 [10]: 0.52 µg/mL (≈ 1.12 µM) | IC90 [10]: 0.59 µg/mL (≈ 1.28 µM) | improvement of anti-Hela activity as compared with tanshinone I ([11]; Hela, vs tanshinone I): more than 8 fold | IC50 [11]: 0.47 µg/mL (≈ 1.02 µM) | IC90 [11]: 1.75 µg/mL (≈ 3.78 µM) | IC50 [12]: 0.66 µg/mL (≈ 1.43 µM) | IC90 [12]: 1.85 µg/mL (≈ 4 µM) | improvement of anti-Hep-2 activity as compared with tanshinone I ([13]; Hep-2, vs tanshinone I): more than 4 fold | IC50 [13]: 0.62 µg/mL (≈ 1.34 µM) | IC90 [13]: 1.76 µg/mL (≈ 3.81 µM) | IC50 [14]: 0.61 µg/mL (≈ 1.32 µM) | IC90 [14]: 1.79 µg/mL (≈ 3.87 µM) | IC50 [15]: 0.41 µg/mL (≈ 0.886 µM) | IC90 [15]: 2.24 µg/mL (≈ 4.84 µM) | IC50 [16]: 0.4 µg/mL (≈ 0.865 µM) | IC90 [16]: 4.73 µg/mL (≈ 10.2 µM) | IC50 [17]: 0.92 µg/mL (≈ 1.99 µM) | IC90 [17]: 3.74 µg/mL (≈ 8.09 µM) | IC50 [18]: 0.14 µg/mL (≈ 0.303 µM) | IC90 [18]: 1.28 µg/mL (≈ 2.77 µM) | IC50 [19]: 1.66 µg/mL (≈ 3.59 µM) | IC90 [19]: 3.39 µg/mL (≈ 7.33 µM) | IC50 [20]: 0.66 µg/mL (≈ 1.43 µM) | IC90 [20]: 1.55 µg/mL (≈ 3.35 µM)

Cc1c(CN(C)CCOC(=O)C2CCNCC2)oc2c1C(=O)C(=O)c1c-2ccc2c(C)cccc12 [BS-TA-64]
IC50 [1]: 0.59 µg/mL (≈ 1.24 µM) | IC90 [1]: 1.63 µg/mL (≈ 3.43 µM) | IC50 [2]: 0.54 µg/mL (≈ 1.14 µM) | IC90 [2]: 1.92 µg/mL (≈ 4.05 µM) | IC50 [3]: 0.84 µg/mL (≈ 1.77 µM) | IC90 [3]: 2.82 µg/mL (≈ 5.94 µM) | IC50 [4]: 0.33 µg/mL (≈ 0.695 µM) | IC90 [4]: 0.7 µg/mL (≈ 1.48 µM) | IC50 [5]: 0.25 µg/mL (≈ 0.527 µM) | IC90 [5]: 0.87 µg/mL (≈ 1.83 µM) | IC50 [6]: 0.4 µg/mL (≈ 0.843 µM) | IC90 [6]: 0.92 µg/mL (≈ 1.94 µM) | IC50 [7]: 1.4 µg/mL (≈ 2.95 µM) | IC90 [7]: 4.46 µg/mL (≈ 9.4 µM) | IC50 [8]: 0.77 µg/mL (≈ 1.62 µM) | IC90 [8]: 1.67 µg/mL (≈ 3.52 µM) | IC50 [9]: 1.8 µg/mL (≈ 3.79 µM) | IC90 [9]: 3.8 µg/mL (≈ 8.01 µM) | IC50 [10]: 0.88 µg/mL (≈ 1.85 µM) | IC90 [10]: 1.85 µg/mL (≈ 3.9 µM) | IC50 [11]: 2.16 µg/mL (≈ 4.55 µM) | IC90 [11]: 3.9 µg/mL (≈ 8.22 µM) | IC50 [12]: 1.31 µg/mL (≈ 2.76 µM) | IC90 [12]: 3.66 µg/mL (≈ 7.71 µM) | IC50 [13]: 1.67 µg/mL (≈ 3.52 µM) | IC90 [13]: 3.65 µg/mL (≈ 7.69 µM) | IC50 [14]: 0.82 µg/mL (≈ 1.73 µM) | IC90 [14]: 2.16 µg/mL (≈ 4.55 µM) | IC50 [15]: 0.85 µg/mL (≈ 1.79 µM) | IC90 [15]: 3.24 µg/mL (≈ 6.83 µM) | IC50 [16]: 0.71 µg/mL (≈ 1.5 µM) | IC90 [16]: 5.07 µg/mL (≈ 10.7 µM) | IC50 [17]: 1.8 µg/mL (≈ 3.79 µM) | IC90 [17]: 4.15 µg/mL (≈ 8.74 µM) | IC50 [18]: 0.29 µg/mL (≈ 0.611 µM) | IC90 [18]: 5.56 µg/mL (≈ 11.7 µM) | IC50 [19]: 3.55 µg/mL (≈ 7.48 µM) | IC90 [19]: 7.76 µg/mL (≈ 16.4 µM) | IC50 [20]: 1.16 µg/mL (≈ 2.44 µM) | IC90 [20]: 3.72 µg/mL (≈ 7.84 µM)
